Test results reported in ChEMBL document CHEMBL1201862, “PubChem BioAssay data set” (2004).
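Briefly, cells in 96-well plates were exposed to five compound concentrations for 48 h, and endpoints were estimated by linear interpolation. GI50 = concentration required for 50% inhibition of growth.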 Active and inactive are the calls of the source. Cut-off read from the data, not from the text of the source: active = GI50 up to about 1.1 µM and inactive = higher.

Legend:
Test in all cases: NCI anticancer screen, dose series, 48 h
DLD-1 = system: DLD-1
DMS-114 = system: DMS-114
DMS-273 = system: DMS-273
HOP-18 = system: HOP-18
KM-20L2 = system: KM-20L2
LXFL 529 = system: LXFL 529
RXF 631 = system: RXF 631
SNB-78 = system: SNB-78
XF498 = system: XF498

Measured: GI50

O=NN(CCCl)C(=O)N[C@H]1CC[C@@H](C(=O)O)CC1
inactive: DLD-1 > 100 µM | DMS-114 52.7 µM | DMS-273 > 100 µM | HOP-18 > 69.5 µM | KM-20L2 > 100 µM | LXFL 529 > 100 µM | RXF 631 > 100 µM | SNB-78 > 100 µM | XF498 > 100 µM

CCCCCCCCCC(=O)Oc1cccc2onc(C)c12
inactive: DLD-1 > 100 µM | DMS-114 > 100 µM | DMS-273 > 100 µM | HOP-18 > 100 µM | KM-20L2 > 100 µM | LXFL 529 > 100 µM | RXF 631 > 100 µM | SNB-78 > 100 µM

Oc1ncnc2c1nnn2CCCCCCCCCCCCn1nnc2c(O)ncnc21
inactive: DLD-1 > 91.2 µM | DMS-114 7.06 µM | DMS-273 27.5 µM | HOP-18 24.2 µM | KM-20L2 > 100 µM | LXFL 529 33.6 µM | SNB-78 19.2 µM

COc1ccc([C@H]2CC(=O)N3CCCC3N2)cc1 (stereo not given in full)
inactive: DLD-1 > 100 µM | DMS-114 > 100 µM | DMS-273 > 100 µM | HOP-18 43 µM | KM-20L2 > 100 µM | LXFL 529 > 100 µM | SNB-78 > 100 µM | XF498 > 100 µM

CCOC(=O)C(C)(c1c(C)[nH]c2ccccc12)c1c(C)[nH]c2ccccc12
inactive: DLD-1 23.7 µM | DMS-114 15.7 µM | DMS-273 14.1 µM | KM-20L2 16.4 µM | LXFL 529 51.4 µM | SNB-78 17.5 µM | XF498 21.8 µM

Cc1nn2c(=O)n(-c3cccc(-n4nnc5c(-c6ccccc6)c(C)nn5c4=O)c3C)nnc2c1-c1ccccc1
inactive: DLD-1 22.8 µM | DMS-114 13.8 µM | DMS-273 66.8 µM | HOP-18 4.94 µM | KM-20L2 19.5 µM | LXFL 529 24.7 µM | SNB-78 82.2 µM | XF498 20.9 µM

C=C(C)C1CCC2(C)CC1c1c(c(C)cc3c1[nH]c1ccccc13)O2 (stereo not given)
inactive: DLD-1 > 25 µM | DMS-114 > 25 µM | DMS-273 > 25 µM | KM-20L2 > 25 µM | LXFL 529 > 25 µM | XF498 > 25 µM

Brc1ccc2c(c1)C1(c3cc(Br)ccc3-2)c2cc(Br)ccc2-c2ccc(Br)cc21
inactive: DLD-1 > 100 µM | DMS-114 > 100 µM | DMS-273 > 100 µM | HOP-18 > 100 µM | KM-20L2 > 100 µM | LXFL 529 > 100 µM | RXF 631 > 100 µM | SNB-78 > 100 µM | XF498 > 100 µM

Cc1cn(C2CC(n3cncn3)C(C(C)O)O2)c(=O)[nH]c1=O (stereo not given)
inactive: DLD-1 > 100 µM | DMS-114 > 100 µM | DMS-273 > 100 µM | HOP-18 > 100 µM | KM-20L2 > 100 µM | LXFL 529 > 100 µM | SNB-78 > 100 µM | XF498 > 100 µM

Nc1ccc(C(=O)N/C(=C\c2cccc([N+](=O)[O-])c2)c2nc3c4c(ccc3[nH]2)C(=O)c2ccccc2C4=O)cc1
inactive: DLD-1 11.2 µM | DMS-114 8.18 µM | DMS-273 27.5 µM | HOP-18 11 µM | KM-20L2 > 100 µM | LXFL 529 16.5 µM | RXF 631 29.9 µM | SNB-78 > 100 µM | XF498 > 100 µM

Cn1cnc([N+](=O)[O-])c1Sc1nc2cccnc2[nH]1
inactive: DLD-1 25.6 µM | DMS-114 24.8 µM | DMS-273 1.61 µM | HOP-18 70.1 µM | KM-20L2 > 100 µM | LXFL 529 39.2 µM | RXF 631 1.73 µM | SNB-78 > 100 µM | XF498 45.8 µM

COC1C=CC23c4cc5c(cc4C(O)OC2CN(C)C3C1)OCO5 (stereo not given)
inactive: DMS-114 1.26 µM | DMS-273 1.4 µM | KM-20L2 1.29 µM | LXFL 529 1.45 µM

O=C(c1ccccc1)C(c1ccccc1)C1(O)C(=O)Nc2c(Cl)ccc(Cl)c21 (stereo not given)
inactive: DLD-1 18.2 µM | DMS-114 17 µM | DMS-273 14.4 µM | HOP-18 24.2 µM | KM-20L2 34.2 µM | LXFL 529 17.2 µM | SNB-78 25.5 µM

CC(C)(C)NN=C1C(C)(C)C(=NNC(C)(C)C)C1(C)C
inactive: DLD-1 > 100 µM | DMS-114 > 100 µM | DMS-273 > 100 µM | KM-20L2 > 100 µM | LXFL 529 > 100 µM | SNB-78 > 100 µM | XF498 > 100 µM

C/C(CN1C(=O)c2ccccc2C1=O)=N\NS(C)(=O)=O
inactive: DLD-1 > 100 µM | DMS-114 > 100 µM | DMS-273 > 100 µM | HOP-18 > 100 µM | KM-20L2 > 100 µM | LXFL 529 > 100 µM | SNB-78 > 100 µM | XF498 > 100 µM

O=C(O)CCSC(=O)Nc1cccc2ccccc12
inactive: DLD-1 > 100 µM | DMS-114 > 100 µM | DMS-273 > 100 µM | HOP-18 > 100 µM | KM-20L2 > 100 µM | LXFL 529 > 100 µM | RXF 631 > 100 µM | SNB-78 > 100 µM | XF498 > 100 µM

O=C(Cc1ccccc1)NN1C(=O)C(Cl)C1c1ccc(O)cc1 (stereo not given)
inactive: DLD-1 > 100 µM | DMS-114 > 100 µM | DMS-273 > 100 µM | HOP-18 > 100 µM | KM-20L2 > 100 µM

N/C(=N\N=C=C1C(=O)Nc2ccc(F)cc21)NO
inactive: DLD-1 > 100 µM | DMS-114 > 100 µM | DMS-273 > 100 µM | LXFL 529 > 100 µM | RXF 631 > 100 µM | SNB-78 > 100 µM | XF498 > 100 µM

CC(C)(C)OC(=O)NC(CO)c1cccc(OCc2ccccc2)c1 (stereo not given)
inactive: DLD-1 > 100 µM | DMS-114 23.1 µM | DMS-273 53.2 µM | HOP-18 > 100 µM | KM-20L2 > 100 µM | LXFL 529 > 100 µM | SNB-78 83.4 µM | XF498 > 100 µM

CCO/C=C\C12CCCC1NC(c1ccccc1)(c1ccccc1)O2 (stereo not given)
inactive: DLD-1 32.3 µM | DMS-114 30.6 µM | DMS-273 32.7 µM | KM-20L2 23.1 µM | LXFL 529 28.1 µM | SNB-78 54.8 µM

COC1=CC(=O)C2C(C1=O)C(c1ccc(Cl)cc1)[C@@H]2C (stereo not given in full)
inactive: DLD-1 25.9 µM | DMS-114 21.5 µM | DMS-273 41 µM | HOP-18 12.2 µM | KM-20L2 51.1 µM | LXFL 529 17.5 µM | SNB-78 36.8 µM | XF498 18.3 µM

COc1ccc(/C=C\c2cc(OC)c(OC(C)=O)c(OC)c2)cc1
inactive: DLD-1 14.2 µM | DMS-114 4.78 µM | DMS-273 5.31 µM | KM-20L2 29.5 µM | LXFL 529 19.7 µM | RXF 631 23.5 µM | SNB-78 25.5 µM | XF498 30.3 µM
